Measured values from publication PMC8600089, “The development of a high-affinity conformation-sensitive antibody mimetic using a biocompatible copolymer carrier (iBody)” (The Journal of Biological Chemistry, 2021).
Like-named read-outs stand apart in the source and are kept apart here. Blank lines part the entries; values can stand above or below the compound they belong to. Starred links: 1 amine or outer side, 2 acyl side, 3 side chain; linkers in the order of their positions; H or OH if unused. Positions of bridges follow the written chain, without caps; N, C: chain ends. Residues, ends and D or L forms follow the SMILES beside them. Groups on a side chain read outwards from the residue. *: point of attachment. PEG12 = NCCOCCOCCOCCOCCOCCOCCOCCOCCOCCOCCOCCOCCC(=O)O; Biotin = O=C1N[C@H]2[C@H](CS[C@H]2CCCCC(=O)*)N1; TBMB = c1c(C[*:1])cc(C[*:3])cc1C[*:2]

How the values were obtained:
[1] = biological target: T1, recombinant extracellular part of PSMA (Homo sapiens, UniProt Q04609); experiment: Competition ELISA: iBody 1 binding to PSMA versus PSMA inhibitors
T1 sequence (Q04609 44-750 limits assumed): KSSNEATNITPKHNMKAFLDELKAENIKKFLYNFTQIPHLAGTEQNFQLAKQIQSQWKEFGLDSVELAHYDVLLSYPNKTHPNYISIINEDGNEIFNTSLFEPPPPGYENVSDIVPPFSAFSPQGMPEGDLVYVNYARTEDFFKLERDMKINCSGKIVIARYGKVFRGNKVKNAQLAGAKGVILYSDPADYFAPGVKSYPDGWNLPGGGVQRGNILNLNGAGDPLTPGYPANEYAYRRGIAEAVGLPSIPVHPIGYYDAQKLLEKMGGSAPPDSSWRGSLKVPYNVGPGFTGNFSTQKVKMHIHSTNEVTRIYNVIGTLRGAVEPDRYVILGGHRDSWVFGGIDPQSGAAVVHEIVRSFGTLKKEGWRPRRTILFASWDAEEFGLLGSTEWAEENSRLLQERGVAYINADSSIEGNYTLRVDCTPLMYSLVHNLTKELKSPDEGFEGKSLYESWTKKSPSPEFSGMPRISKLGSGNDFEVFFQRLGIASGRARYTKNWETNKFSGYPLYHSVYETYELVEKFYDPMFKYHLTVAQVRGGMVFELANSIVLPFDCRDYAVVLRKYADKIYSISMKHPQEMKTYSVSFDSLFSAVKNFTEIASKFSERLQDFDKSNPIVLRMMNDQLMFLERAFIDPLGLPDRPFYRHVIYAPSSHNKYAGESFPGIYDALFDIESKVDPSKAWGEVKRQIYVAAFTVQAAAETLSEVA

[2] = biological target: PSMA (AviPSMA) (Homo sapiens, UniProt Q04609); experiment: PSMA activity assay (HPLC, substrate pteroyl-di-L-glutamate); format: biochemical
Sequence of PSMA (AviPSMA) (Q04609 44-750 limits assumed): as above

[3] = biological target: T1, recombinant extracellular part of PSMA; experiment: ELISA with immobilized PSMA

Compound: O=C(O)CCC(CP(=O)(O)O)C(=O)O (centres unmarked) [2-PMPA, 2-(phosphonomethyl)pentane-1,5-dioic acid]
- competition with binding of iBody 1 to PSMA on ELISA (in words) [1]: outcompeted

- IC50 ([2]; cell gives μM under a head in nM, 20-min incubation, 37 °C, n = 3): > 50 µM
- inhibition at 50 µM ([2]; in 50μM): 10%
- EC50 [3]: > 5 µM
Compound: CC(=O)N[C@H]1CSCc2cc3cc(c2)CSC[C@H](NC(=O)[C@H](CCC(=O)O)NC(=O)[C@H](CC(=O)O)NC(=O)[C@H](CC(=O)O)NC1=O)C(=O)N1CCC[C@H]1C(=O)N[C@@H](CC(=O)O)C(=O)N[C@@H](Cc1ccc(O)cc1)C(=O)N[C@@H](C(C)C)C(=O)N[C@H](C(=O)NCC(=O)NCC(=O)N[C@@H](CO)C(=O)NCC(=O)N[C@@H](CCCCNC(=O)CCOCCOCCOCCOCCOCCOCCOCCOCCOCCOCCOCCOCCNC(=O)CCCC[C@@H]1SC[C@@H]2NC(=O)N[C@@H]21)C(N)=O)CSC3 [Peptide 1] (Ac-CDDECPDYVCGGSGK([PEG12-Biotin])-NH2; linker 1-5-10 via TBMB)

- competition with binding of iBody 1 to PSMA on ELISA (in words) ([1]; iBody 1 (5 nM per legend), inhibitor pre-incubated 30 min, then iBody 60 min at RT, representative of >3 experiments, n = 3): outcompeted
Compound: phosphate

Compound: poly(HPMA-co-Ma-β-Ala-ATTO488-co-Ma-β-Ala-NH-ED-biotin) [iBody 3, reference compound]
- Ratio: value on layer with PSMA divided by value on layer lacking PSMA ([3]; 8 nM iBody): 0.9
- Ratio: value on layer with PSMA divided by value on layer lacking PSMA ([3]; 40 nM iBody): 1.3
- Ratio: value on layer with PSMA divided by value on layer lacking PSMA ([3]; 200 nM iBody): 1.1
- Ratio: value on layer with PSMA divided by value on layer lacking PSMA ([3]; 1000 nM iBody): 0.8
- Ratio: value on layer with PSMA divided by value on layer lacking PSMA ([3]; 5000 nM iBody): 0.8
- specific binding to immobilized PSMA compared with control layer (in words) ([3]; ELISA, layer with vs without PSMA): no specific binding
